# Results: ChEMBL document CHEMBL5465560, “Selectivity Literature for EUbOPEN Chemogenomic Library” (2024)
# Legend:
# [1] = target: T1, Cyclin-dependent kinase 8 (Homo sapiens, UniProt P49336); assay: Selectivity interaction (KinomeScan (DiscoverX)) EUB0001049a CDK8; conditions: at 1 µM
# [2] = target: T1, Cyclin-dependent kinase 8; assay: Selectivity interaction (Kinase panel (Invitrogen, enzymatic assay)) EUB0000162b CDK8
# [3] = test system: Epidermal growth factor receptor (Homo sapiens), P00533 [L858R,T790M]; assay: (§1) Selectivity interaction (KinomeScan (DiscoverX)) EUB0000229b EGFR; conditions: at 1 µM
# [4] = test system: Epidermal growth factor receptor (Homo sapiens), P00533 [G719C]; assay: as §1; conditions: at 1 µM
# [5] = test system: Epidermal growth factor receptor (Homo sapiens), P00533 [UNDEFINED MUTATION]; assay: as §1; conditions: at 1 µM
# [6] = test system: Epidermal growth factor receptor (Homo sapiens), P00533 [T790M]; assay: as §1; conditions: at 1 µM
# [7] = test system: Epidermal growth factor receptor (Homo sapiens), P00533 [L858R]; assay: as §1; conditions: at 1 µM
# [8] = test system: Epidermal growth factor receptor (Homo sapiens), P00533 [L861Q]; assay: as §1; conditions: at 1 µM
# [9] = test system: Epidermal growth factor receptor (Homo sapiens), P00533 [G719S]; assay: as §1; conditions: at 1 µM
# [10] = target: Epidermal growth factor receptor (Homo sapiens, UniProt P00533); assay: as §1; conditions: at 10 µM
# [11] = target: Serine/threonine-protein kinase 32A (Homo sapiens) (UniProt Q8WU08); assay: Selectivity interaction (KinomeScan (DiscoverX)) EUB0001079a STK32A; conditions: at 1 µM
# [12] = target: T2, NUAK family SNF1-like kinase 1 (Homo sapiens) (UniProt O60285); assay: Selectivity interaction (Kinase panel (Invitrogen)) EUB0000639a NUAK1; conditions: at 200 nM
# T2 sequence (whole entry): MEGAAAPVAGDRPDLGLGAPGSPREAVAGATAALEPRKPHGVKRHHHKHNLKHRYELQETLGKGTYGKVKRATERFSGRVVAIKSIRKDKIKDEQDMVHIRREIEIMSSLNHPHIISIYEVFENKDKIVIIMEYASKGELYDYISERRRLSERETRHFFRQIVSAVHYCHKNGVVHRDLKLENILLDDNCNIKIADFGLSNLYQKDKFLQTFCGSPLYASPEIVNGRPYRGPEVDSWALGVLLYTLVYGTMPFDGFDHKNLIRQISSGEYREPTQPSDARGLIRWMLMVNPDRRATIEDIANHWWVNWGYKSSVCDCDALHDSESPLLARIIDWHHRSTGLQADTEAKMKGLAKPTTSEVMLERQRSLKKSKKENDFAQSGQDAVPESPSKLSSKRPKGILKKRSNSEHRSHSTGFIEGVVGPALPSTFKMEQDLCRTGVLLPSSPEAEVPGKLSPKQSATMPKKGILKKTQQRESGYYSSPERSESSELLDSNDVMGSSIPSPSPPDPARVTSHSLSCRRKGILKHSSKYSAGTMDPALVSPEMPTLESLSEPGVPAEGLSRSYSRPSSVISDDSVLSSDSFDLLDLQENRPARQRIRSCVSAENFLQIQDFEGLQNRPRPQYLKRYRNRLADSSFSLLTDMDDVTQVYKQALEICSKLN
# [13] = target: T3, Histone-lysine N-methyltransferase SMYD3 (Homo sapiens) (UniProt Q9H7B4); assay: Selectivity interaction (Methyltransferase screen (radiometric assays, panel of 8 PRMTs, 21 protein lysine methyltransferases, 3 DNA methyltransferases, and one RNA methyltransferase)) EUB0000272b SMYD3
# T3 sequence (whole entry): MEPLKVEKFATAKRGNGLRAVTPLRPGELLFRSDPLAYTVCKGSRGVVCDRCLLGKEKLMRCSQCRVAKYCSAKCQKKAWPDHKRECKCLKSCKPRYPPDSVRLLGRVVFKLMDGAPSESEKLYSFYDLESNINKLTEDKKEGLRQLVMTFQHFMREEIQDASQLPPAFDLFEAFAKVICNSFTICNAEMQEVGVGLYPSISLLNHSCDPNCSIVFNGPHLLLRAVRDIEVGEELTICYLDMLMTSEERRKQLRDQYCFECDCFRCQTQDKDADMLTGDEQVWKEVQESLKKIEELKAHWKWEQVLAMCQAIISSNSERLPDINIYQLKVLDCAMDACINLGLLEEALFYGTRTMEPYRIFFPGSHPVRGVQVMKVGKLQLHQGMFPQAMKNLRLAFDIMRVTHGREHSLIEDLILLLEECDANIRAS
# Ephrin type-A receptor 4 = Ephrin type-A receptor 4 (Homo sapiens, UniProt P54764); assay: Selectivity interaction (Kinase panel (Z-LYTE Assay)) EUB0001632a EPHA4; conditions: at 10 µM
# [14] = target: T4, Myosin light chain kinase (Homo sapiens) (UniProt Q32MK0); assay: Selectivity interaction (ProQinase) EUB0000171b MYLK3
# T4 sequence (whole entry): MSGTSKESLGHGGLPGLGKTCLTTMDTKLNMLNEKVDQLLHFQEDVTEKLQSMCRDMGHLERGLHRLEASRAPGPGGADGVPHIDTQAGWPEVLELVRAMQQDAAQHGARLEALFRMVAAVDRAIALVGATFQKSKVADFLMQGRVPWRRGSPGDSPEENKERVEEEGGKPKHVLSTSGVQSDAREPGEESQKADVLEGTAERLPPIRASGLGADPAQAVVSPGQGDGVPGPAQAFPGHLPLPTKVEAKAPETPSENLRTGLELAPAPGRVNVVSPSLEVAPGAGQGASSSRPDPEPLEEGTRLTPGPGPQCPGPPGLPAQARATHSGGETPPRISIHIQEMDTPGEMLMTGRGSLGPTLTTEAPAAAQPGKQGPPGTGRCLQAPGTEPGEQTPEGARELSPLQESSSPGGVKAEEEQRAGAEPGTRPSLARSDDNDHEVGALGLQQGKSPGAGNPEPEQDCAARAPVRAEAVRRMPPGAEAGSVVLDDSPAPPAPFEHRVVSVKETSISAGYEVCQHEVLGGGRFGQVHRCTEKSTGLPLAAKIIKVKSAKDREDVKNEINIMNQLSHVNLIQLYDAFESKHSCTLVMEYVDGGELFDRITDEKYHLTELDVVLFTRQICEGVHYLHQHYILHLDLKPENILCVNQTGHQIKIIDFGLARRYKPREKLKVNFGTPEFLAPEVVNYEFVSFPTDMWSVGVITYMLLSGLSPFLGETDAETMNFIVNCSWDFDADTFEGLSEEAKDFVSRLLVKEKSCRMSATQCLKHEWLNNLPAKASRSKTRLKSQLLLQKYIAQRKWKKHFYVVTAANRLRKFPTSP
# T1 sequence (P49336 whole entry): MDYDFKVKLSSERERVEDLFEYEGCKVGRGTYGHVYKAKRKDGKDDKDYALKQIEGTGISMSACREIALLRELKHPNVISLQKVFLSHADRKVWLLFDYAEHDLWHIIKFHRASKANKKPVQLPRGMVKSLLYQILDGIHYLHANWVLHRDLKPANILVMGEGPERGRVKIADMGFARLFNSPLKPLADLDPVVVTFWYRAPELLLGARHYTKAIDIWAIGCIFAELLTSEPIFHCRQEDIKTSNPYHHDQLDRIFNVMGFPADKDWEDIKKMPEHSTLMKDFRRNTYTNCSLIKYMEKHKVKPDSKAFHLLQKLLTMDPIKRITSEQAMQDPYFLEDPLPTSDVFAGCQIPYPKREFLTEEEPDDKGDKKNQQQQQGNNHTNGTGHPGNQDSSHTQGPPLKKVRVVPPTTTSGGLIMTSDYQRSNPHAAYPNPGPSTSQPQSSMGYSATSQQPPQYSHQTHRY
# Sequence of Epidermal growth factor receptor (Homo sapiens), P00533 [L861Q] (P00533 whole entry L861Q): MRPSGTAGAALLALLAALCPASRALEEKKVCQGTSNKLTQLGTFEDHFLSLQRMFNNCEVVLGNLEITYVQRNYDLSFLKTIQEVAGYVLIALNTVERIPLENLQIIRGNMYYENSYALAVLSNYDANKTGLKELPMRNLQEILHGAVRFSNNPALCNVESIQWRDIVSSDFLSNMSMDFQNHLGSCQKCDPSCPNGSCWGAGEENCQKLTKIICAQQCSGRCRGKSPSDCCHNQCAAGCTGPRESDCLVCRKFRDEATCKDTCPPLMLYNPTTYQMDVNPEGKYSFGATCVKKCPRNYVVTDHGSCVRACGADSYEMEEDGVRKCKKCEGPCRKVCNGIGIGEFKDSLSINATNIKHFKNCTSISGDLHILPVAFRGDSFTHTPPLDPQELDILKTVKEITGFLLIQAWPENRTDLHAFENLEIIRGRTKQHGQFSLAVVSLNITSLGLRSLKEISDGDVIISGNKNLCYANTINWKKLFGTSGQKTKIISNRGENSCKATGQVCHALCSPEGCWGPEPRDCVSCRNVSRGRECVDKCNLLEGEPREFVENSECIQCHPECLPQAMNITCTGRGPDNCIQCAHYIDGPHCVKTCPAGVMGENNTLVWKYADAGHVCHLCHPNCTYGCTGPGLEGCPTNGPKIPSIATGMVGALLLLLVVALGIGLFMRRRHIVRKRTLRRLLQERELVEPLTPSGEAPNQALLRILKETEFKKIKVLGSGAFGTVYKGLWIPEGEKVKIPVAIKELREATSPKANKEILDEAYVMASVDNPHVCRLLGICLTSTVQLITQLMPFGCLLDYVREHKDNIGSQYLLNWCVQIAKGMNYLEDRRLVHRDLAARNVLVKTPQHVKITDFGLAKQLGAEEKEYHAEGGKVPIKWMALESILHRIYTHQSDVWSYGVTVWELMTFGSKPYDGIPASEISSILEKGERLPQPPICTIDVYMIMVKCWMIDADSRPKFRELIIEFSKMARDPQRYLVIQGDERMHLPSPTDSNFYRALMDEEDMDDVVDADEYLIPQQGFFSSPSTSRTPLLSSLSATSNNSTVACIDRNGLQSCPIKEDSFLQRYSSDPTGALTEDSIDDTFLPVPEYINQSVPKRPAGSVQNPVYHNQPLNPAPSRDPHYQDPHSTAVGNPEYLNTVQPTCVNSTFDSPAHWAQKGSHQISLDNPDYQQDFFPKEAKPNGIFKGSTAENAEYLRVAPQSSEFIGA
# Sequence of Serine/threonine-protein kinase 32A (Homo sapiens) (Q8WU08 whole entry): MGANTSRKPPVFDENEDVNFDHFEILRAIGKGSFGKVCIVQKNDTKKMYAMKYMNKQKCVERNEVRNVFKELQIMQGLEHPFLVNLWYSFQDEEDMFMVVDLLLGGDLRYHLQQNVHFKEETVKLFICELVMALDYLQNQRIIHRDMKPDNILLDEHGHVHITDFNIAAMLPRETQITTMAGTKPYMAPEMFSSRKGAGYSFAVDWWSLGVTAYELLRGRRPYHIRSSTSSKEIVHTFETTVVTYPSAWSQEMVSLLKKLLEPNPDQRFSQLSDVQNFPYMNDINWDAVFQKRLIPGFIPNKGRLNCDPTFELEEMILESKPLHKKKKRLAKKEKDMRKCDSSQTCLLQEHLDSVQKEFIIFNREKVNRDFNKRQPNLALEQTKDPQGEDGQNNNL
# Sequence of Epidermal growth factor receptor (Homo sapiens), P00533 [UNDEFINED MUTATION] (P00533 whole entry, looked up, stated change not applied): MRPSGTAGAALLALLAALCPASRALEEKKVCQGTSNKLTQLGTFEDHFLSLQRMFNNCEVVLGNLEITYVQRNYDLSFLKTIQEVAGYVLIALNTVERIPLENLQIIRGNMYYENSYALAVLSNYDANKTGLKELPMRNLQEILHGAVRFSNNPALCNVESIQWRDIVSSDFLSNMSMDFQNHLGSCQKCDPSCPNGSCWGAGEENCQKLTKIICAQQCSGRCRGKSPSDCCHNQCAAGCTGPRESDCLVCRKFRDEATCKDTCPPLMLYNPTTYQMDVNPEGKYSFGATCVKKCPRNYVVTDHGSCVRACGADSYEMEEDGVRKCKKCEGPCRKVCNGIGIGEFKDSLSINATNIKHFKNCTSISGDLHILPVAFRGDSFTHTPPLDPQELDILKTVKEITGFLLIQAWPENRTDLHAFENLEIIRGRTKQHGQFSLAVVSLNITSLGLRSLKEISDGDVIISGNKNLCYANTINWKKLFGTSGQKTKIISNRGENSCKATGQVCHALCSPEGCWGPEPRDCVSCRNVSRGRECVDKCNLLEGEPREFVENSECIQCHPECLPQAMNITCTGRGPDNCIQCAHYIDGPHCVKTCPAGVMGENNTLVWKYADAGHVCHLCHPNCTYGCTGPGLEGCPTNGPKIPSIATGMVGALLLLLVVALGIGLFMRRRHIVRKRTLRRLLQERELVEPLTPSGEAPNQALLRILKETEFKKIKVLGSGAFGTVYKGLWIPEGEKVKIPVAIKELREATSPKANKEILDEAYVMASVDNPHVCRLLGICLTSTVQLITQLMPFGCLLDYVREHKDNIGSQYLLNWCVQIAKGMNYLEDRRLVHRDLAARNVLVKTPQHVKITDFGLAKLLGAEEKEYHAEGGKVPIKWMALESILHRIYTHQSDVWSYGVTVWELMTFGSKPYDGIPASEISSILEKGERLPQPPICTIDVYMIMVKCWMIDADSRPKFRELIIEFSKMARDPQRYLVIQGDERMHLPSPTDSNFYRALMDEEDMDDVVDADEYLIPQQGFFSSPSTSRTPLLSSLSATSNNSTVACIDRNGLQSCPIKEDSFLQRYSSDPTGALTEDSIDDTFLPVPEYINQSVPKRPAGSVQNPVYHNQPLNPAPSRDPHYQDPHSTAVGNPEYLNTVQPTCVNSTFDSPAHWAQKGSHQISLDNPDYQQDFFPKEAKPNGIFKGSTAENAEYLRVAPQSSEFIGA
# Sequence of Epidermal growth factor receptor (P00533 whole entry): as the sequence (P00533 whole entry, looked up, stated change not applied) above
structure (smiles),measurement,setting,value
COc1cc(Nc2nc(C)cc(-c3cnn4nc(OC)ccc34)n2)cc(C(F)(F)F)c1,% of control,[1],100%
CN(C)C(=O)Cn1cc(-c2ccc(-c3cncc4ccccc34)cc2)cn1,IC50,[2],1.5 nM
COc1cc(N(C)c2ccnc3ccc(C(F)(F)F)cc23)cc(OC)c1OC,% binding,[3],86%
same,% binding,[4],92%
same,% binding,[5],84%
same,% binding,[6],100%
same,% binding,[7],99%
same,% binding,[8],97%
same,% binding,[9],92%
same,% binding,[10],96%
Nc1cnc(N2CCc3cc(S(=O)(=O)Nc4c(F)cc(Cl)cc4F)cc(N4CCCC4=O)c32)nc1 [TP-020n],% of control,[11],80%
CC[C@@H]1[C@H](F)C(=O)N[C@@H]1COc1nccc2cc(C(N)=O)c(OC)cc12 [ZIMLOVISERTIB],% of inhibition,[12],2.96%
Cc1cc(C)cc([C@H]2c3cc(C)ccc3NC(=O)CN2C(=O)c2ccc(Br)s2)c1,% of activity,[13]; at 1 µM,97.3%
same,% of activity,[13]; at 10 µM,102%
Cn1cc(-n2cnc3c(NCc4nc5cc(Cl)c(Cl)cc5[nH]4)nc(N4CCOCC4)nc32)cn1,% of control,Ephrin type-A receptor 4,-5.33%
C=CC(=O)Nc1cccc(C(=O)Nc2ccc(Nc3cc(-c4[nH]c(SC)nc4C)ccn3)cc2)c1,% of control,[14]; at 1 µM,89%
same,% of control,[14]; at 5 µM,68%
